According to EP4635500A1, “THERAPEUTIC AGENT FOR BACTERIAL INFECTION” (Sumitomo Pharma Co., Ltd., priority 2022, dated 2024):
Converted amounts (≈) assume the structure as drawn. Like-named read-outs stand apart in the source and are kept apart here.

Key:
P. aeruginosa = experiment: MIC, broth microdilution, CDC/FDA Antibiotic Resistance Isolate Bank (Example 7, Tables 10, 15); format: cell-based; settings: for MIC: Pseudomonas aeruginosa, read-out: MIC
53 CRE and CPE strains = experiment: MICrange, MIC50, MIC80, MIC90 for 53 bacterial isolates (Example 5, Table 5); format: cell-based; settings: 53 bacterial isolates

Question: How did the “MIC against 26 metallo-carbapenemase-producing strains MIC50” value (P. aeruginosa; 26 metallo-carbapenemase-producing P. aeruginosa strains, β-lactamase inhibitor µg/mL in parentheses) turn out when `C[C@H]1[C@H](NC(=O)/C(=N\OC(C)(C)C(=O)O)c2csc(N)n2)C(=O)N1S(=O)(=O)O` [Aztreonam, aztreonam] was run?
Answer: 16 µg(mL)

Question: What about the “MIC against 96 strains of P. aeruginosa MIC50” value (P. aeruginosa; 96 strains of P. aeruginosa, β-lactamase inhibitor µg/mL in parentheses) of the same compound?
Answer: 16 µg(mL)

Question: What about the MIC (P. aeruginosa; P. aeruginosa KUB No. 579, AR Bank # 447) of the same compound?
Answer: 4 µg/mL (≈ 9.19 µM)

Question: And the MIC (P. aeruginosa; P. aeruginosa KUB No. 5551, AR Bank # 54)?
Answer: 32 µg/mL (≈ 73.5 µM)

Question: And the MIC (P. aeruginosa; P. aeruginosa KUB No. 5561, AR Bank # 64)?
Answer: 16 µg/mL (≈ 36.7 µM)

Question: What about the MIC (P. aeruginosa; P. aeruginosa KUB No. 5592, AR Bank # 95) of the same compound?
Answer: 16 µg/mL (≈ 36.7 µM)

Question: And the MIC (P. aeruginosa; P. aeruginosa KUB No. 5597, AR Bank # 100)?
Answer: 32 µg/mL (≈ 73.5 µM)

Question: And the MIC (P. aeruginosa; P. aeruginosa KUB No. 5600, AR Bank # 103)?
Answer: 16 µg/mL (≈ 36.7 µM)

Question: And the MIC (P. aeruginosa; P. aeruginosa KUB No. 5602, AR Bank # 105)?
Answer: 32 µg/mL (≈ 73.5 µM)

Question: And the MIC (P. aeruginosa; P. aeruginosa KUB No. 5605, AR Bank # 108)?
Answer: 8 µg/mL (≈ 18.4 µM)

Question: And the MIC (P. aeruginosa; P. aeruginosa KUB No. 5607, AR Bank # 110)?
Answer: 4 µg/mL (≈ 9.19 µM)

Question: What about the MIC (P. aeruginosa; P. aeruginosa KUB No. 5608, AR Bank # 111) of the same compound?
Answer: 2 µg/mL (≈ 4.59 µM)

Question: And the MIC (P. aeruginosa; P. aeruginosa KUB No. 5663, AR Bank # 230)?
Answer: 4 µg/mL (≈ 9.19 µM)

Question: What about the MIC (P. aeruginosa; P. aeruginosa KUB No. 5665, AR Bank # 232) of the same compound?
Answer: 4 µg/mL (≈ 9.19 µM)

Question: And the MIC (P. aeruginosa; P. aeruginosa KUB No. 5666, AR Bank # 23)?
Answer: 16 µg/mL (≈ 36.7 µM)

Question: What about the MIC (P. aeruginosa; P. aeruginosa KUB No. 5667, AR Bank # 234) of the same compound?
Answer: 2 µg/mL (≈ 4.59 µM)

Question: And the MIC (P. aeruginosa; P. aeruginosa KUB No. 5669, AR Bank # 236)?
Answer: 2 µg/mL (≈ 4.59 µM)

Question: And the MIC (P. aeruginosa; P. aeruginosa KUB No. 5670, AR Bank # 237)?
Answer: 4 µg/mL (≈ 9.19 µM)

Question: And the MIC (P. aeruginosa; P. aeruginosa KUB No. 5671, AR Bank # 238)?
Answer: 4 µg/mL (≈ 9.19 µM)

Question: And the MIC (P. aeruginosa; P. aeruginosa KUB No. 5672, AR Bank # 239)?
Answer: 32 µg/mL (≈ 73.5 µM)

Question: What about the MIC (P. aeruginosa; P. aeruginosa KUB No. 5673, AR Bank # 240) of the same compound?
Answer: 32 µg/mL (≈ 73.5 µM)

Question: And the MIC (P. aeruginosa; P. aeruginosa KUB No. 5674, AR Bank # 241)?
Answer: 32 µg/mL (≈ 73.5 µM)

Question: What about the MIC (P. aeruginosa; P. aeruginosa KUB No. 5675, AR Bank # 242) of the same compound?
Answer: 4 µg/mL (≈ 9.19 µM)

Question: What about the MIC (P. aeruginosa; P. aeruginosa KUB No. 5676, AR Bank # 243) of the same compound?
Answer: 2 µg/mL (≈ 4.59 µM)

Question: And the MIC (P. aeruginosa; P. aeruginosa KUB No. 5677, AR Bank # 244)?
Answer: 32 µg/mL (≈ 73.5 µM)

Question: And the MIC (P. aeruginosa; P. aeruginosa KUB No. 5678, AR Bank # 245)?
Answer: 16 µg/mL (≈ 36.7 µM)

Question: What about the MIC (P. aeruginosa; P. aeruginosa KUB No. 5680, AR Bank # 247) of the same compound?
Answer: 4 µg/mL (≈ 9.19 µM)

Question: And the MIC (P. aeruginosa; P. aeruginosa KUB No. 5681, AR Bank # 248)?
Answer: 4 µg/mL (≈ 9.19 µM)

Question: What about the MIC (P. aeruginosa; P. aeruginosa KUB No. 5682, AR Bank # 249) of the same compound?
Answer: 32 µg/mL (≈ 73.5 µM)

Question: And the MIC (P. aeruginosa; P. aeruginosa KUB No. 5684, AR Bank # 251)?
Answer: 32 µg/mL (≈ 73.5 µM)

Question: And the MIC (P. aeruginosa; P. aeruginosa KUB No. 5685, AR Bank # 252)?
Answer: 32 µg/mL (≈ 73.5 µM)

Question: What about the MIC (P. aeruginosa; P. aeruginosa KUB No. 5686, AR Bank # 253) of the same compound?
Answer: 16 µg/mL (≈ 36.7 µM)

Question: What about the MIC (P. aeruginosa; P. aeruginosa KUB No. 5687, AR Bank # 254) of the same compound?
Answer: 4 µg/mL (≈ 9.19 µM)

Question: What about the MIC (P. aeruginosa; P. aeruginosa KUB No. 5688, AR Bank # 255) of the same compound?
Answer: 8 µg/mL (≈ 18.4 µM)

Question: And the MIC (P. aeruginosa; P. aeruginosa KUB No. 5689, AR Bank # 256)?
Answer: 4 µg/mL (≈ 9.19 µM)

Question: And the MIC (P. aeruginosa; P. aeruginosa KUB No. 5690, AR Bank # 257)?
Answer: 8 µg/mL (≈ 18.4 µM)

Question: And the MIC (P. aeruginosa; P. aeruginosa KUB No. 5691, AR Bank # 258)?
Answer: 4 µg/mL (≈ 9.19 µM)

Question: And the MIC (P. aeruginosa; P. aeruginosa KUB No. 5692, AR Bank # 259)?
Answer: 4 µg/mL (≈ 9.19 µM)

Question: And the MIC (P. aeruginosa; P. aeruginosa KUB No. 5693, AR Bank # 260)?
Answer: 8 µg/mL (≈ 18.4 µM)

Question: And the MIC (P. aeruginosa; P. aeruginosa KUB No. 5694, AR Bank # 261)?
Answer: 4 µg/mL (≈ 9.19 µM)

Question: What about the MIC (P. aeruginosa; P. aeruginosa KUB No. 5695, AR Bank # 262) of the same compound?
Answer: 16 µg/mL (≈ 36.7 µM)

Question: What about the MIC (P. aeruginosa; P. aeruginosa KUB No. 5696, AR Bank # 263) of the same compound?
Answer: 2 µg/mL (≈ 4.59 µM)

Question: And the MIC (P. aeruginosa; P. aeruginosa KUB No. 5697, AR Bank # 264)?
Answer: 2 µg/mL (≈ 4.59 µM)

Question: What about the MIC (P. aeruginosa; P. aeruginosa KUB No. 5698, AR Bank # 265) of the same compound?
Answer: 8 µg/mL (≈ 18.4 µM)

Question: And the MIC (P. aeruginosa; P. aeruginosa KUB No. 5699, AR Bank # 266)?
Answer: 4 µg/mL (≈ 9.19 µM)

Question: What about the MIC (P. aeruginosa; P. aeruginosa KUB No. 5700, AR Bank # 267) of the same compound?
Answer: 4 µg/mL (≈ 9.19 µM)

Question: And the MIC (P. aeruginosa; P. aeruginosa KUB No. 5701, AR Bank # 268)?
Answer: 32 µg/mL (≈ 73.5 µM)

Question: What about the MIC (P. aeruginosa; P. aeruginosa KUB No. 5702, AR Bank # 269) of the same compound?
Answer: 16 µg/mL (≈ 36.7 µM)

Question: What about the MIC (P. aeruginosa; P. aeruginosa KUB No. 5703, AR Bank # 270) of the same compound?
Answer: 2 µg/mL (≈ 4.59 µM)

Question: What about the MIC (P. aeruginosa; P. aeruginosa KUB No. 5704, AR Bank # 271) of the same compound?
Answer: 16 µg/mL (≈ 36.7 µM)

Question: What about the MIC (P. aeruginosa; P. aeruginosa KUB No. 5705, AR Bank # 272) of the same compound?
Answer: 4 µg/mL (≈ 9.19 µM)

Question: What about the MIC (P. aeruginosa; P. aeruginosa KUB No. 5749, AR Bank # 353) of the same compound?
Answer: 8 µg/mL (≈ 18.4 µM)

Question: What about the MIC (P. aeruginosa; P. aeruginosa KUB No. 5750, AR Bank # 354) of the same compound?
Answer: 16 µg/mL (≈ 36.7 µM)

Question: What about the MIC (P. aeruginosa; P. aeruginosa KUB No. 5754, AR Bank # 358) of the same compound?
Answer: 32 µg/mL (≈ 73.5 µM)

Question: What about the MIC (P. aeruginosa; P. aeruginosa KUB No. 5755, AR Bank # 359) of the same compound?
Answer: 32 µg/mL (≈ 73.5 µM)

Question: And the MIC (P. aeruginosa; P. aeruginosa KUB No. 5756, AR Bank # 360)?
Answer: 16 µg/mL (≈ 36.7 µM)

Question: What about the MIC (P. aeruginosa; P. aeruginosa KUB No. 5785, AR Bank # 439) of the same compound?
Answer: 4 µg/mL (≈ 9.19 µM)

Question: And the MIC (P. aeruginosa; P. aeruginosa KUB No. 5786, AR Bank # 440)?
Answer: 32 µg/mL (≈ 73.5 µM)

Question: What about the MIC (P. aeruginosa; P. aeruginosa KUB No. 5789, AR Bank # 444) of the same compound?
Answer: 8 µg/mL (≈ 18.4 µM)

Question: And the MIC (P. aeruginosa; P. aeruginosa KUB No. 5800, AR Bank # 457)?
Answer: 32 µg/mL (≈ 73.5 µM)

Question: What about the MIC (P. aeruginosa; P. aeruginosa KUB No. 5805, AR Bank # 863) of the same compound?
Answer: 16 µg/mL (≈ 36.7 µM)

Question: What about the MIC (P. aeruginosa; P. aeruginosa KUB No. 5813, AR Bank # 508) of the same compound?
Answer: > 0.064 µg/mL

Question: What about the MIC (P. aeruginosa; P. aeruginosa KUB No. 5814, AR Bank # 509) of the same compound?
Answer: 0.008 µg/mL (≈ 0.0184 µM)

Question: What about the MIC (P. aeruginosa; P. aeruginosa KUB No. 5815, AR Bank # 510) of the same compound?
Answer: 0.0005 µg/mL (≈ 0.00115 µM)

Question: And the MIC (P. aeruginosa; P. aeruginosa KUB No. 5816, AR Bank # 511)?
Answer: 0.004 µg/mL (≈ 0.00919 µM)

Question: And the MIC (P. aeruginosa; P. aeruginosa KUB No. 5817, AR Bank # 512)?
Answer: 0.032 µg/mL (≈ 0.0735 µM)

Question: And the MIC (P. aeruginosa; P. aeruginosa KUB No. 5818, AR Bank # 513)?
Answer: 0.032 µg/mL (≈ 0.0735 µM)

Question: And the MIC (P. aeruginosa; P. aeruginosa KUB No. 5819, AR Bank # 514)?
Answer: 0.004 µg/mL (≈ 0.00919 µM)

Question: What about the MIC (P. aeruginosa; P. aeruginosa KUB No. 5820, AR Bank # 515) of the same compound?
Answer: 0.032 µg/mL (≈ 0.0735 µM)

Question: And the MIC (P. aeruginosa; P. aeruginosa KUB No. 5821, AR Bank # 516)?
Answer: > 0.064 µg/mL

Question: What about the MIC (P. aeruginosa; P. aeruginosa KUB No. 5823, AR Bank # 518) of the same compound?
Answer: > 0.064 µg/mL

Question: And the MIC (P. aeruginosa; P. aeruginosa KUB No. 5831, AR Bank # 526)?
Answer: 0.004 µg/mL (≈ 0.00919 µM)

Question: And the MIC (P. aeruginosa; P. aeruginosa KUB No. 5832, AR Bank # 527)?
Answer: 0.032 µg/mL (≈ 0.0735 µM)

Question: What about the MIC (P. aeruginosa; P. aeruginosa KUB No. 5834, AR Bank # 529) of the same compound?
Answer: 0.008 µg/mL (≈ 0.0184 µM)

Question: What about the MIC80 (53 CRE and CPE strains; read-out: MIC80) of the same compound?
Answer: > 64 µg/mL

Question: And the MIC90 (53 CRE and CPE strains; read-out: MIC90)?
Answer: > 64 µg/mL
